# Target: T1, IRAK-4 (Homo sapiens, UniProt Q9NWZ3)
# T1 sequence (Q9NWZ3 1-460): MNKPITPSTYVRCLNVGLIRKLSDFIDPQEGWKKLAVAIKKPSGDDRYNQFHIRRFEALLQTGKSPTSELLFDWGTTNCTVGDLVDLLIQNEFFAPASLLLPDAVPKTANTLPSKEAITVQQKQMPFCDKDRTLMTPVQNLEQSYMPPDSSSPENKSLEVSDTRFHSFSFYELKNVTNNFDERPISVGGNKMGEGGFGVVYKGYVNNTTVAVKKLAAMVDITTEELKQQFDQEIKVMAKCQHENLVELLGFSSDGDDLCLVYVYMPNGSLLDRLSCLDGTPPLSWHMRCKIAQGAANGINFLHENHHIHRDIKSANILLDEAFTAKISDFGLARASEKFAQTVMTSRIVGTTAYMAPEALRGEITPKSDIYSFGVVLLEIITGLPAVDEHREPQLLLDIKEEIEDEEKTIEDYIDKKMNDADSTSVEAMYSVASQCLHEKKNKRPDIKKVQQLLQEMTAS
# Experiment: IRAK-4 ELISA, PBMC degradation
# Format: cell-based
# Parameters: endogenous in cells; host or cells: PBMC
# Conditions: treated overnight
# Summary of the method: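 Overnight compound treatment, started on the day of plating, of OCI-Ly10 (1×10^6/ml) and PBMC (2×10^6/ml) cultures. Lysates are collected and IRAK-4 content is read by sandwich ELISA.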
SMILES,DC50,Dmax,PBMC DC90,PBMC Dmax
CCN(C1CCC(n2cc3cc(NC(=O)c4cnn5cccnc45)c(OCC4CC4)cc3n2)CC1)C1CN(c2ccc3c(c2)C(=O)N(C2CCC(=O)NC2=O)C3=O)C1 (stereo not drawn) [Example 325],1 to 5 nM,≥ 90%,C (C represents a DC90 value ≥25.0 nM and <50 nM),
O=C1CCC(N2C(=O)c3ccc(N4CC(N(CC(F)F)C5CCC(n6cc7cc(NC(=O)c8cnn9cccnc89)c(OCC8CC8)cc7n6)CC5)C4)cc3C2=O)C(=O)N1 (stereo not drawn) [Example 326],1 to 5 nM,≥ 90%,B (B represents a DC90 value ≥10.0 nM and <25.0 nM),
CC(C)Oc1cc2c(cc1NC(=O)c1cnn3cccnc13)CN(C1CCC(N(C)C3CN(c4ccc(C(=O)NC5CCC(=O)NC5=O)c(F)c4)C3)CC1)C2=O (stereo not drawn) [Example 328],< 1 nM,≥ 90%,A (A represents a DC90 value <10.0 nM),
CCN(C1CCC(N2Cc3cc(NC(=O)c4cnn5cccnc45)c(OC(C)C)cc3C2=O)CC1)C1CN(c2ccc3c(c2)CN(C2CCC(=O)NC2=O)C3=O)C1 (stereo not drawn) [Example 330],< 1 nM,≥ 90%,A (A represents a DC90 value <10.0 nM),
CC(C)Oc1cc2c(cc1NC(=O)c1cnn3cccnc13)CN(C1CCC(N(CC(F)F)C3CN(c4ccc5c(c4)C(=O)N(C4CCC(=O)NC4=O)C5=O)C3)CC1)C2=O (stereo not drawn) [Example 331],1 to 5 nM,≥ 90%,B (B represents a DC90 value ≥10.0 nM and <25.0 nM),
CN(C1CCC(N2Cc3cc(NC(=O)c4cnn5cccnc45)c(OC4CC4)cc3C2=O)CC1)C1CN(c2ccc3c(c2)C(=O)N(C2CCC(=O)NC2=O)C3=O)C1 (stereo not drawn) [Example 341],< 1 nM,≥ 90%,A (A represents a DC90 value <10.0 nM),
CN(C1CN(c2ccc3c(c2)C(=O)N(C2CCC(=O)NC2=O)C3=O)C1)[C@H]1CC[C@H](n2cc3cc(NC(=O)c4cnn5cccnc45)c(C4CC4)cc3n2)CC1 (stereo partly drawn) [Example 343],< 1 nM,≥ 90%,A (A represents a DC90 value <10.0 nM),
CN(C1CCN(c2ccc3c(c2)C(=O)N(C2CCC(=O)NC2=O)C3=O)CC1)[C@H]1CC[C@H](n2cc3cc(NC(=O)c4cnn5cccnc45)c(C4CC4)cc3n2)CC1 (stereo partly drawn) [Example 344],< 1 nM,≥ 90%,A (A represents a DC90 value <10.0 nM),

# Other lines, results leading:
DC50,Dmax,PBMC DC90,PBMC Dmax,SMILES
≥ 10 nM,80 to 90%,D (D represents a DC90 value ≥50 nM),,O=C1CCC(N2C(=O)c3ccc(N4CC(N(CC(F)(F)F)C5CCC(n6cc7cc(NC(=O)c8cnn9cccnc89)c(OCC8CC8)cc7n6)CC5)C4)cc3C2=O)C(=O)N1 (stereo not drawn) [Example 327]
,,A (A represents a DC90 value <10.0 nM),A (A represents a Dmax value ≥90),CC(C)Oc1cc2c(cc1NC(=O)c1cnn3cccnc13)CN(C1CCC(N(C)C3CN(c4ccc5c(c4)CN(C4CCC(=O)NC4=O)C5=O)C3)CC1)C2=O (stereo not drawn) [Example 329]
< 1 nM,,,,CC(C)Oc1cc2c(cc1NC(=O)c1cnn3cccnc13)CN([C@H]1CC[C@H](N(C)C3CN(c4ccc5c(c4)CN(C4CCC(=O)NC4=O)C5=O)C3)CC1)C2=O (stereo partly drawn) [Example 329]
≥ 10 nM,≥ 90%,D (D represents a DC90 value ≥50 nM),,CC(C)Oc1cc2c(cc1NC(=O)c1cnn3cccnc13)CN(C1CCC(N(CC(F)(F)F)C3CN(c4ccc5c(c4)C(=O)N(C4CCC(=O)NC4=O)C5=O)C3)CC1)C2=O (stereo not drawn) [Example 332]
< 1 nM,≥ 90%,A (A represents a DC90 value <10.0 nM),,CN(C1CCC(N2Cc3cc(NC(=O)c4cnn5cccnc45)c(OC4CC4)cc3C2=O)CC1)C1CCN(c2ccc3c(c2)C(=O)N(C2CCC(=O)NC2=O)C3=O)CC1 (stereo not drawn) [Example 342]
< 1 nM,≥ 90%,A (A represents a DC90 value <10.0 nM),,CN(C1CCC(N2Cc3cc(NC(=O)c4cnn5cccnc45)c(OCC4CC4)cc3C2=O)CC1)C1CN(c2ccc3c(c2)C(=O)N(C2CCC(=O)NC2=O)C3=O)C1 (stereo not drawn) [Example 345]
